Columns and labels:
[1] = Stability in mouse liver microsomes; type: in vitro ADME; conditions: for half-life: read-out: T½
[2] = Stability in human liver microsomes; type: in vitro ADME; conditions: for half-life: read-out: T½
[3] = Stability in rat liver microsomes; type: in vitro ADME; conditions: for half-life: read-out: T½
[4] = Plasma concentration-time profile following 50 mg/kg GRX-917 and etifoxine in rats (FIG. 1); type: in vivo, rat
[5] = Phase 1 multiple-ascending dose study, plasma pharmacokinetics in healthy subjects; type: in vivo, human; parameters: Geometric mean trough concentration: unit not given here
Protocol: The first dose of study drug was given on Day 1. On Days 1 through 6, subjects subsequently received two (q12h) oral doses of study drug each day. A final single dose of study drug was given on Day 7. Each dose of study drug was given with a 240 mL glass of water at the end of ingestion of a standard meal. The meal was provided 30 minutes before dosing and was completed within 30 minutes or less. On Day 1 and Day 7, subjects were required to fast for 8 hours before the morning meal dose and for 2 hours post dose (water was freely available during this time).

[6] = cited from earlier work

Question: What does the source list for `[2H]C([2H])([2H])C([2H])([2H])NC1=Nc2ccc(Cl)cc2C(C)(c2ccccc2)O1` (racemic) [Deuterated Etifoxine, 6-chloro-N-(ethyl-d5)-4-methyl-4-phenyl-4H-3,1-benzoxazin-2-amine]?
Answer: microsomal CLint [1]: 464 µL/min/mg; half-life [1]: 15 min; microsomal CLint [2]: 170 µL/min/mg; half-life [2]: 41 min; microsomal CLint [3]: 503 µL/min/mg; half-life [3]: 14 min; AUC as compared to etifoxine [4]: approximately 3 fold; Induction of metabolism ([5]; 100 mg bid): did not induce metabolism; Geometric mean trough concentration ([5]; 100 mg q12 h, Day 1): 11.6; Geometric mean trough concentration ([5]; 100 mg q12 h, Day 2): 36.1; Geometric mean trough concentration ([5]; 100 mg q12 h, Day 4): 39.3; Geometric mean trough concentration ([5]; 100 mg q12 h, Day 5): 31.9; Geometric mean trough concentration ([5]; 100 mg q12 h, Day 6): 34.0; Geometric mean trough concentration ([5]; 100 mg q12 h, Day 7 (12-hr post-dose)): 27.1; Geometric mean trough concentration ([5]; 100 mg q12 h, Day 7 (pre-dose)): 27.7; Induction of metabolism ([5]; 150 mg bid (twice daily)): induces metabolism; Geometric mean trough concentration ([5]; 150 mg q12 h, Day 1): 28.1; Geometric mean trough concentration ([5]; 150 mg q12 h, Day 2): 43.8; Geometric mean trough concentration ([5]; 150 mg q12 h, Day 4): 44.5; Geometric mean trough concentration ([5]; 150 mg q12 h, Day 5): 39.2; Geometric mean trough concentration ([5]; 150 mg q12 h, Day 6): 37.7; Geometric mean trough concentration ([5]; 150 mg q12 h, Day 7 (12-hr post-dose)): 31.4; Geometric mean trough concentration ([5]; 150 mg q12 h, Day 7 (pre-dose)): 33.3; Geometric mean trough concentration ([5]; 200 mg q12 h, Day 1): 42.8; Geometric mean trough concentration ([5]; 200 mg q12 h, Day 2): 72.3; Geometric mean trough concentration ([5]; 200 mg q12 h, Day 4): 67.2; Geometric mean trough concentration ([5]; 200 mg q12 h, Day 5): 62.4; Geometric mean trough concentration ([5]; 200 mg q12 h, Day 6): 53.7; Geometric mean trough concentration ([5]; 200 mg q12 h, Day 7 (12-hr post-dose)): 51.4; Geometric mean trough concentration ([5]; 200 mg q12 h, Day 7 (pre-dose)): 58.9; Geometric mean trough concentration ([5]; 300 mg q12 h, Day 1): 54.9; Geometric mean trough concentration ([5]; 300 mg q12 h, Day 2): 87.4; Geometric mean trough concentration ([5]; 300 mg q12 h, Day 4): 71.0; Geometric mean trough concentration ([5]; 300 mg q12 h, Day 5): 70.0; Geometric mean trough concentration ([5]; 300 mg q12 h, Day 6): 66.3; Geometric mean trough concentration ([5]; 300 mg q12 h, Day 7 (12-hr post-dose)): 60.4; Geometric mean trough concentration ([5]; 300 mg q12 h, Day 7 (pre-dose)): 63.0; Tmax dependence on dose ([5]; Day 7, statistical analysis): independent of dose; half-life ([5]; both sexes, human, plasma, oral, Day 7, read-out: Geometric mean t1/2): 38.8 to 82.1 h; Tmax ([5]; both sexes, human, plasma, single and multiple oral doses of 100-300 mg q12h, post-dose, read-out: Median Tmax): 120 to 211 min; Fraction of dose excreted as deuterated etifoxine ([5]; renal elimination): < 0.004%

Question: Which microsomal CLint [1] does the source give for `CCNC1=Nc2ccc(Cl)cc2C(C)(c2ccccc2)O1` (stereo not shown) [Etifoxine, 6-chloro-2-(ethylamino)-4-methyl-4-phenyl-4H-3,1-benzoxazine] here?
Answer: Its microsomal CLint is 657 µL/min/mg.

Question: What about the half-life [1] of the same compound?
Answer: Its half-life is 11 min.

Question: What about the microsomal CLint [2] of the same compound?
Answer: Its microsomal CLint is 309 µL/min/mg.

Question: What about the half-life [2] of the same compound?
Answer: Its half-life is 22 min.

Question: What about the microsomal CLint [3] of the same compound?
Answer: The microsomal CLint was 915 µL/min/mg.

Question: And the half-life [3]?
Answer: The half-life was 8 min.

Question: What about the “Auto-induction of CYP enzyme(s) on continued dosing” value ([6]; continued dosing over time) of the same compound?
Answer: Its value is “exhibits an auto-induction effect”.

Question: And the Half-life in humans ([6]; humans)?
Answer: Its Half-life in humans is 240 to 360 min.

Reference: patent US20240189316A1, “DEUTERATED ANALOGS OF ETIFOXINE AND METHODS OF ADMINISTRATION WITHOUT AUTOINDUCTION OF METABOLISM” (Gaba Therapeutics Inc., priority 2022, published 2024)
